Measured values from patent US20190055590A1, “REGULARLY ARRANGED SPHEROIDS HAVING EQUAL SIZES AND USE THEREOF” (GAIA BioMedicine Inc., priority 2016, published 2019).

Tests used:
[1] = test system: CT26 GFP+ cells; assay: Tertiary screening: inhibition of spheroid formation, 2D vs 3D culture on 96 plate, ATP assay; assay type: cell-based; conditions: 96-well U-shaped bottom plate, pre-treatment or post-treatment
Procedure: Inoculation onto 96 Plate 1. […] 2. […] 3. […] 4. […] 5. […] 6. […] 7. […] 8. […] 1. Serially dilute a compound from the highest concentration of 20 μM at a common ratio of 1/10 for 7 doses (1% DMSO) with the medium. 2. Subsequently, add 10 μL of the serially diluted compound to the cell plate after the inoculation. 3. As for addition time of the drug, add the drug immediately after the inoculation (pre-treatment), or one day after the inoculation (post-treatment). On the final day of the evaluation, add CellTiter-Glo (registered trademark) 3D cell Viability Assay in the same volume as that of the culture volume, and 15 to 30 minutes thereafter, perform pipetting. Subsequently, transfer 120 μL of the cell lysate to Black Plate as required, and measure luminescence with a luminometer (Enspire etc.).

[2] = test system: peritoneal dissemination (CT26 GFP+ cells); assay: In vivo test: peritoneal dissemination after intraperitoneal transfer of CT26 GFP+ cells; set-up: species or system male BALB/c mice; conditions: mice, comparison with the vehicle group on the final day (Tukey-Kramer HSD test)
From the text: 1. Use male BALB/c mice (henceforth referred to as mouse or mice, 6 to 8 weeks old at the time of use). 2. Put the mice in a plastic cage (W 136 mm×L 208 mm×H 115 mm) of which bottom is covered with a sterilized floor covering (Paper Clean, Japan SLC, Inc.) in a number of mice not larger than 5 mice per one cage until they are used for the experiments. 3. Allow the mice to ingest solid feed CRF-1 (Oriental Yeast Co., Ltd.) and tap water of water bottle ad libitum during the breeding period. 4. Perform individual identification of the mice by ear punching at the time of arrival of the mice (identification number starts from 01). 1. […] 2. […] 3. […] 4. […] 5. Inject 0.2 mL of the cell suspension into the abdominal cavity of each mouse (2.0×10^6 cells/body) by using a syringe with 26 G hypodermic needle (TERUMO CORP.). […] Spread the extracted alimentary canal on a 100-mm dish, and obtain images of the total alimentary canal in a bright field and with fluorescence by using BZ9000. […] On the last day of the evaluation, sacrifice the mice by cervical dislocation, open up the abdomen by midline incision, and collect the ascites reserved in the abdominal cavity with absorbent cotton of which weight is measured beforehand. […]

[3] = test system: CT26 GFP+ cells; conditions: 384-well plate, row with EDTA added (FIG. 1)
Procedure: 1. Proliferate CT26 GFP^+ cells to a subconfluent or confluent state, then remove the culture medium by suction, and then wash the cells with phosphate buffered saline (PBS, Invitrogen). 2. Remove PBS, then add a 0.05% trypsin solution [0.25% trypsin, 1 mmol/L EDTA•4Na (Invitrogen), diluted 5-fold with PBS], and allow the reaction under the conditions of 37° C., 5% CO2, and 95% air until cells are separated from the dish. 3. Add 10% FBS-RPMI 1640 to suspend the cells, and collect them. 4. Perform centrifugation (400 g, 3 minutes) at 4° C., and then re-suspend the precipitates (cells) in 10% FBS-RPMI 1640. 5. Mix a part of the cell suspension with 0.4% trypan blue solution (Sigma-Aldrich), and count live cells under a phase contrast microscope by using a cell counting plate (OneCell Counter, OneCell Inc.). 6. In the case of 2D culture, dilute the cell suspension with 10% FBS-0.1% DMSO-RPMI 1640 to 3.0×10^4 cells/mL, and inoculate the cells on a culture plate (ViewPlate-384, PerkinElmer) in a volume of 20 μL/well using BIOMEK (registered trademark) NXP (BECKMAN COULTER). 7. […]
1. Observe morphology of the spheroids by 2 types of methods, in a bright field and with fluorescence, by using IN Cell Analyzer 2000 (GE Healthcare) 72 Hours after the treatment with the drug. […] Evaluate the spheroids on the basis of the total fluorescence amount (density×area) obtained from GFP as an index. […]

Structure (SMILES)	ability to inhibit spheroid formation [1]	effect on peritoneal dissemination (fluorescence amount emitted from the alimentary canal extracted on the last evaluation day) ([2]; FIG. 6)	effect on peritoneal dissemination (weight of the ascites collected on the last evaluation day) ([2]; FIG. 7)	spheroid formation [3]
O=C(NOC[C@H](O)CO)c1ccc(F)c(F)c1Nc1ccc(I)cc1F [PD0325901]	high ability to inhibit spheroid formation	confirmed in vivo	confirmed in vivo	–
O=C(O)CN(CCN(CC(=O)O)CC(=O)O)CC(=O)O [EDTA]	–	–	–	no spheroid formation
